One experiment deals with S. epidermidis AgrC-III. The experiment is described as follows: AgrC-III modulation, Group-III GFP reporter strain AH3409. The format is cell-based, Staphylococcus epidermidis. Conditions: initial single-concentration screen, 10 μM (Figures S-2, 2A).
Experiment [1] has as its target T1, S. epidermidis AgrC-I (Staphylococcus epidermidis, UniProt Q5HMY3). The format is cell-based. The conditions noted are these: for IC50: AgrC-I antagonism dose response, peptide alone, Group-I reporter strain, 24 h.
The next experiment has as its system S. epidermidis AgrC-II. In words: AgrC-II modulation, Group-II GFP reporter strain AH3567. The format is cell-based, Staphylococcus epidermidis.
Experiment [2] concerns the target T1, S. epidermidis AgrC-I. The format is cell-based. The conditions noted are these: AgrC-I activation dose response in the presence of 50 nM S. epidermidis AIP-II.

In the case of D-S-V-(C-A-S-A-F) [AIP-I Y7A], the “AgrC-III (Group-III) inhibition, single concentration” value in the experiment on S. epidermidis AgrC-III is ~ 50%. At S. epidermidis AgrC-I [1], the IC50 result is “Inactive ^c”. In addition, the “AgrC-II (Group-II) inhibition, single concentration” value in the experiment on S. epidermidis AgrC-II (initial single-concentration screen, 10 μM (Figures S-1, 2A)) is on record as ~ 50%. Moreover, the EC50 result on S. epidermidis AgrC-I [2] is reported as “Inactive ^c”.
On to D-S-V-(C-A-S-DY-F) [AIP-I D-Y7], for which the IC50 entry at S. epidermidis AgrC-I [1] is reported as “Inactive ^c”. In addition, the EC50 result on S. epidermidis AgrC-I [2] was “Inactive ^c”.
Turning to D-S-V-(C-A-S-Y-A) [AIP-I F8A], the IC50 entry against S. epidermidis AgrC-I [1] was “Inactive ^c”. Besides, the EC50 result on S. epidermidis AgrC-I [2] was “Inactive ^c”.
Take D-S-V-(C-DA-S-Y-F) [AIP-I D-A5]: the IC50 entry against S. epidermidis AgrC-I [1] is listed as “Inactive ^c”. Besides, at S. epidermidis AgrC-I [2], the EC50 entry is on record as “Inactive ^c”.
As to D-S-V-(C-S-S-Y-F) [A5S-2], at S. epidermidis AgrC-I [1] (two isolated AIP-I A5S products), the “AgrC-I dose response behaviour” value was “very weak inhibition at low concentrations yet activation at higher concentrations”.
With D-S-V-(DC-A-S-Y-F) [AIP-I D-C4], the IC50 entry against S. epidermidis AgrC-I [1] is “Inactive ^c”. Further, on S. epidermidis AgrC-I [2], the EC50 entry is listed as “Inactive ^c”.
Take “I-N-(C-A-F-L-L) [S. aureus AIP-III D4A, reference compound]”: the IC50 entry against S. epidermidis AgrC-I [1] is given as “Inactive ^c”. In addition, the “Activity toward Group-II (AgrC-II) at lower concentration” value in the experiment with S. epidermidis AgrC-II (100 nM (lower-concentration screen 1 μM or 100 nM; Figure 2A)) is listed as “inhibiting exclusively Group-II”. In addition, at S. epidermidis AgrC-I [2], the EC50 entry is “Inactive ^c”.
“I-N-(C-D-F-L-L) [S. aureus AIP-III, reference compound]”: the IC50 result at S. epidermidis AgrC-I [1] was “Inactive ^c”. For the same substance, the EC50 result at S. epidermidis AgrC-I [2] was “Inactive ^c”.
Turning to “Y-S-T-(C-D-F-I-M) [S. aureus AIP-I, reference compound]”, at S. epidermidis AgrC-I [1], the IC50 result was “Inactive ^c”. Moreover, the EC50 result on S. epidermidis AgrC-I [2] is “Inactive ^c”.

Source of the values: article PMC4946969 (ACS chemical biology, 2016).
